Assay results: patent publication US10125112B2, “Modulators of the relaxin receptor 1” (The United States of America, as Represented by the …, priority 2012, dated 2018)
In brackets after ≈: the same amount, converted by molar mass.

How the values were obtained:
[1] = ATP Cytotoxicity assay (ATPLite) in HEK293-RXFP1 cells; type: cell-based; conditions: human, inactive = Maximum response less than 30%, read-out: ATP Tox. EC50 (μM, Max. Resp.): EC50
Protocol: This follow-up assay was conducted to measure the effect of compounds on cell viability by measuring ATP levels (ATPLite™). ATPLite™ is an Adenosine TriPhosphate (ATP) monitoring system based on firefly (Photinus pyralis) luciferase. The level of ATP in a metabolically active cell is a general marker for its viability. ATP levels are often reduced during necrosis or apoptosis. In this assay, the luciferase enzyme catalyzes the conversion of the added substrate D-luciferin to oxyluciferin and light with ATP. Thus, the emitted light is proportional to the ATP concentration. […] After compound incubation, the levels of ATP in each well were measured with the addition of the ATPLite assay reagent.

RXFP2 = biological target: T1, RXFP2 (Homo sapiens, UniProt Q8WXD0); assay: RXFP2 cAMP assay in HEK293-RXFP2 cells; type: cell-based; conditions: for Emax: 0.5 h, read-out: RXFP2 AC50 (μM, Max. Resp.): Max. Resp.; for AC50: HEK293-RXFP2 cells, inactive = Maximum response less than 30%, read-out: RXFP2 AC50 (μM, Max. Resp.): AC50
T1 construct: expressed in transfected cells
Protocol: HEK293 cells stably transfected with RXFP2, the cognate receptor for another relaxin family peptide, insulin-like 3, (HEK293-RXFP2) was used to test compound specificity towards the RXFP1 receptor. For this assay, cells were seeded at 8,000 cells/well in 30 µL/well of media with a MultiDrop Combi dispenser (Thermo Scientific), and allowed to attach overnight at 37° C., 5% CO2. Next, 2 µL/well of 1.6 mM Ro 20-1724 solution in PBS+(DPBS, 1 mM CaCl2, 0.5 mM MgCl2, 0.05% BSA, 0.005% Tween 20) were dispensed using a BioRAPTR FRD dispenser (Beckman Coulter, Brea, Calif.), followed addition of 0.25 μL/well of compound solution in DMSO with CyBi-well dispenser (CyBio, Jena, Germany). The cells were allowed to be stimulated with the compounds for 30 minutes at 37° C., 5% CO2, after which, 8 μL/well of each HTRF detection reagent (diluted according to assay kit directions in HTRF lysis buffer) was dispensed with a BioRAPTR FRD dispenser. The plates were incubated for 30 minute at 37° C., and then the signal was read on a ViewLux plate reader (PerkinElmer, Waltham, Mass.).

PBS solubility = type: physicochemical
RXFP1 = biological target: T2, RXFP1 (Homo sapiens, UniProt Q9HBX9); assay: RXFP1 cAMP assay in HEK293-RXFP1 cells (HTRF); type: cell-based; conditions: percentage of the maximal receptor activation induced by high concentrations of forskolin; Tables 1-7; read-out: Max Response
T2 construct: expressed in transfected cells
T2 sequence (Q9HBX9 1-757): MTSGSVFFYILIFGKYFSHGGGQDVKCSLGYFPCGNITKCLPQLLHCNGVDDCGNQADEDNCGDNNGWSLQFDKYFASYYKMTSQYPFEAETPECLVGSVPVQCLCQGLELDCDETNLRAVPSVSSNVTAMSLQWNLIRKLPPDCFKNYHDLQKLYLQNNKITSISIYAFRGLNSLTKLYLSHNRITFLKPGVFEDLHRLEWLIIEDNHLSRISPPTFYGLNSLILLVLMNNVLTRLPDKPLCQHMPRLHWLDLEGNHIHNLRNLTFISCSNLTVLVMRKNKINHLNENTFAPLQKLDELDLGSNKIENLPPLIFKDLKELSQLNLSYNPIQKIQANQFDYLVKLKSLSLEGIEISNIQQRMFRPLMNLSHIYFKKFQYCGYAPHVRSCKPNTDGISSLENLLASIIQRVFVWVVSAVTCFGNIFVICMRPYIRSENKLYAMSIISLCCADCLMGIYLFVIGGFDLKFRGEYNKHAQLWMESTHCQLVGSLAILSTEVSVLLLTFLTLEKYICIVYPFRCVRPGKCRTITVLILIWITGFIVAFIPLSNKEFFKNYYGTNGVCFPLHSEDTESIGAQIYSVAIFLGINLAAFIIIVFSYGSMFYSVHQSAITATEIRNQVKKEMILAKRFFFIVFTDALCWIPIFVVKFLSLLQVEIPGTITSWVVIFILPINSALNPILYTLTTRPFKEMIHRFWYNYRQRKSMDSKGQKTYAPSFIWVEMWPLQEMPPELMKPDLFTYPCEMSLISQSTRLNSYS
Protocol: The RXFP1 receptor couples to the Gs protein, and activation of the receptor results in stimulation of cAMP production. […] The TR-FRET between the K-α-cAMP and cAMP-d2 is disrupted by cAMP in the cell lysates, thus allowing TR-FRET detection in a homogenous format that is suitable for HTS. […] The primary screen was carried out in 1536-well format, however, because of a more robust signal to background ratio, all subsequent follow-up experiments were carried out in 384-well format.
For the primary screen, HEK293-RXFP1 cells were seeded at 2,000 cells/well in 3 μL/well media with a MultiDrop Combi dispenser (Thermo Scientific, Logan, Utah), and allowed to attach overnight at 37° C., 5% CO2. […] The cells were allowed to be stimulated with the compounds for 30 minutes at 37° C., 5% CO2, after which, 1 μL/well of each HTRF detection reagent was dispensed with a BioRAPTR FRD dispenser. The detection reagents were diluted before addition as follows: K-α-cAMP antibody at 1:20 and cAMP-d2 at 1:18 in HTRF lysis buffer (supplied by the assay kit). The plates were incubated for 30 minute at room temperature, and then the signal was read on a ViewLux plate reader (PerkinElmer, Waltham, Mass.).
The assay was run according to the following protocol:
Max Response indicates what the maximal amount of functional activity induced by the compound is, as a percentage of the maximal receptor activation induced by high concentrations of forskolin.

vasopressin receptor 1b = biological target: T3, vasopressin receptor 1b (Homo sapiens, UniProt P47901); assay: V1b cAMP assay in HEK293-V1b cells; type: cell-based; conditions: inactive = Maximum response less than 30%
T3 construct: expressed in transfected cells
T3 sequence (P47901 1-424): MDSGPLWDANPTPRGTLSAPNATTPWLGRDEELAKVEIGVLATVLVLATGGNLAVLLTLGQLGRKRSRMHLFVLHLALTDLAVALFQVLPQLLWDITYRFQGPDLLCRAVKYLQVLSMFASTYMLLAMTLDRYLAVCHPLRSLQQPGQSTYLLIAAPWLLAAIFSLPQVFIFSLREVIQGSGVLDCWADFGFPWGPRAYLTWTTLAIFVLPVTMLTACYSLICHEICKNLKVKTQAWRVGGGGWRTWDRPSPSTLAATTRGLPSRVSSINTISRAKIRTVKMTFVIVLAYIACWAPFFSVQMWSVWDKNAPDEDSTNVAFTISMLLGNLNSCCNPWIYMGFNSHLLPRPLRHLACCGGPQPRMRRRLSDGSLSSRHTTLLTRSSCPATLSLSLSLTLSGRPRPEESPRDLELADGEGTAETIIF
Protocol: HEK293 stably transfected with a nonrelated G protein coupled receptor, vasopressin receptor 1b (HEK293-V1b), were used as an additional counter screen to eliminate compounds that increase cAMP HTRF signal through non-RXFP1 dependent mechanisms. For this assay, cells were seeded at 8,000 cells/well in 30 µL/well media with a MultiDrop Combi dispenser (Thermo Scientific, Logan, Utah), and allowed to attach overnight at 37° C., 5% CO2. Next, 2 μL/well of 1.6 mM Ro 20-1724 solution in PBS+(DPBS, 1 mM CaCl2, 0.5 mM MgCl2, 0.05% BSA, 0.005% Tween 20) was dispensed using a BioRAPTR FRD dispenser (Beckman Coulter, Brea, Calif.), followed by additional of 0.25 μL/well of compound solution in DMSO with CyBi-well dispenser (CyBio, Jena, Germany). The cells were allowed to be stimulated with the compounds for 30 minutes at 37° C., 5% CO2, after which, 8 μL/well of each HTRF detection reagent (diluted according to assay kit directions in HTRF lysis buffer) was dispensed with a BioRAPTR FRD dispenser. The plates were incubated for 30 minute at room temperature, and then the signal was read on a ViewLux plate reader (PerkinElmer, Waltham, Mass.).

cAMP in THP-1 cells = assay: cyclic AMP assay in THP-1 cells; type: cell-based; conditions: Homo sapiens, THP-1, 0.5 h
Protocol: This Example illustrates the cyclic AMP assay in THP-1 cells. THP-1 cells were propagated in RPMI-1640 supplemented with 20% FBS, 0.05 mM β-mercaptoethanol, 100 U/mL penicillin and 100 μg/mL streptomycin at 37° C. in 5% CO2. Before assaying for cAMP response, cells were serum starved in RPMI-1640 supplemented with 0.05 mM (3-mercaptoethanol, 100 U/mL penicillin and 100 μg/mL streptomycin at 37° C. in 5% CO2 for 16 hrs. For 384-well format assays, cells were seeded as 30,000 cells/well in 30 μL/well media with a MultiDrop Combi dispenser (Thermo Scientific, Waltham, Mass.). Subsequently, 2 μL/well of 1.6 mM Ro 20-1724 and 160 uM forskolin in PBS+ (DPBS, 1 mM CaCl2, 0.5 mM MgCl2, 0.05% BSA, 0.005% Tween 20) was dispensed using a BioRAPTR FRD dispenser (Beckman Coulter, Brea, Calif.). Immediately after, 0.25 μL/well of compound solutions in DMSO was dispensed with CyBi-well dispenser (CyBio, Jena, Germany). The cells were allowed to be stimulated with compounds for 30 min at 37° C. in 5% CO2, after which, 8 μL/well of each HTRF cAMP HiRange kit (CisBio, Bedford, Mass.) detection reagent was dispensed with a BioRAPTR FRD dispenser. The detection reagents were diluted as such: K-α-cAMP antibody at 1:20 and cAMP-d2 at 1:18 in HTRF lysis buffer (supplied by the assay kit). The plates were incubated for 30 min at room temperature before the signal was read on an Envision plate reader (PerkinElmer, Waltham, Mass.).

T1 sequence (Q8WXD0 whole entry, species assumed): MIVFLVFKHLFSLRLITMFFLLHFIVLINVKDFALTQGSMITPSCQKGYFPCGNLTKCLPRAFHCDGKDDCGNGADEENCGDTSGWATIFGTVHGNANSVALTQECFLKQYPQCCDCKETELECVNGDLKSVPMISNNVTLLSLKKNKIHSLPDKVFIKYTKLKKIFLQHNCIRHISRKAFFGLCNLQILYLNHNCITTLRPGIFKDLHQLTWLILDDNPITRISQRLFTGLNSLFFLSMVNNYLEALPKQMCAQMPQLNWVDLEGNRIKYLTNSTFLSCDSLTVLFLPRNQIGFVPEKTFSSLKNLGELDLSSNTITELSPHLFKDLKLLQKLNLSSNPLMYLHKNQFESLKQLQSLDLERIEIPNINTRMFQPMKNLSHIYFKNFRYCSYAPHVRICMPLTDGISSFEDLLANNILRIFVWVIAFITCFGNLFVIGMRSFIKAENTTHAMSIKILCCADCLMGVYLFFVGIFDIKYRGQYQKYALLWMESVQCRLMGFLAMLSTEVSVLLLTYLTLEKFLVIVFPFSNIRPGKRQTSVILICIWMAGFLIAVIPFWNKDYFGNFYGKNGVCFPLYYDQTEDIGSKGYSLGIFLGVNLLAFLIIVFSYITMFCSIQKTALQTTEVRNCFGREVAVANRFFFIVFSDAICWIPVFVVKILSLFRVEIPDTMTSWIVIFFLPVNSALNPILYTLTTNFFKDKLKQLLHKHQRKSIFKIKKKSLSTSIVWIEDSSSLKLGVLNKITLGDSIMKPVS

Compound `COc1ccccc1C(=O)Nc1ccccc1C(=O)Nc1cccc(SC(F)(F)F)c1` [Example 158] has an EC50 at 72 h [1] of 3.74 µM, an Emax (RXFP2) of 54% and an AC50 (RXFP2) of 3.34 µM. For the same compound, the solubility (PBS solubility; aqueous buffer) was 2.9 µM (≈ 1.29 µg/mL) and the Emax (RXFP1) was 99%.
In the case of `CCOc1ccccc1C(=O)Nc1ccccc1C(=O)Nc1cccc(S(=O)(=O)C(F)(F)F)c1` [Example 174, 2-Ethoxy-N-(2-((3-((trifluoromethyl)sulfonyl)phenyl)carbamoyl)phenyl)benzamide], the Emax (RXFP2) is reported as 38%, the AC50 (RXFP2) is reported as 7.47 µM and the “PBS Solubility” value (PBS solubility) is reported as less than 1.1 µM. For the same compound, the “V1b AC50 (μM, Max. Resp.): AC50” value (vasopressin receptor 1b) was “inactive^a” and the EC50 (cAMP in THP-1 cells) was 0.362 µM.
For `CCCOc1ccccc1C(=O)Nc1ccccc1C(=O)Nc1cccc(S(=O)(=O)C(F)(F)F)c1` [Example 179], the EC50 at 72 h [1] was 9.4 µM and the Emax (RXFP1) was 98%.
